Experimental data reported in PubChem BioAssay AID2060507 (Molecular Pharmacology Branch, DTP, NCI, 2025).
Values joined by “and” are separate entries in the source; they are usually repeats but may differ in a detail not shown here. Equal values may be shown once.

Tested on: 519858-162-T-J1-PDC complex spheroid viability
Experiment: Anticancer human tumor 519858-162-T-J1-PDC patient-derived colon adenocarcinoma cell line growth inhibition [GQUAD]
Conditions: for viability, T/C: stronger effect = lower value; active = viability on the fitted dose curve at most 10% of control; inactive = the rest
Description: DNA G-quadruplex Stabilizer Agents in Combinations in Complex Spheroids
A high-throughput screen of multi-cell type tumor spheroids was designed to identify active combinations of DNA G-quadruplex stabilizer agents and targeted small molecules. Complex spheroids include a stromal component modeled by human endothelial cells (HUVEC) and fibroblasts modeled by human mesenchymal stem cells (MSCs). The concentration ranges selected for each drug and investigational agent were based upon clinically achievable concentrations if the clinical Cmax of the agent was known.
Compounds. The drugs and investigational agents: pidnarulex (CX-5461; NSC782164), APTO-253 (NSC789042), BRACO-19 (NSC847499), peposertib (NSC802822), ceralasertib (NSC780249), elimusertib (NSC800525), camonsertib (NSC841442), AZD-1390 (NSC803789), olaparib (NSC753686), talazoparib (NSC767125), ART-558 (NSC835418), sotorasib (NSC818433), MRTX-1133 (NSC836407), SN-38 (NSC673596), topotecan (NSC609699), etoposide (NSC141540), doxorubicin (NSC123127), gemcitabine (NSC613327), 5-fluorouracil (NSC19893), paclitaxel (NSC125973), vemurafenib (NSC761431), panobinostat (NSC761190), R-306465 (JNJ-16241199; NSC773264), adavosertib (NSC754352), TP-3654 (NSC805149), carboplatin (NSC241240), KSQ-4279 (NSC840948), and staurosporine (NSC755774) were obtained from the National Cancer Institute (NCI) Developmental Therapeutics Program Chemical Repository (34). The FDA-approved anticancer drug set is available from the NCI Developmental Therapeutics Program. […] The stock solutions were prepared in dimethyl sulfoxide (DMSO, Sigma-Aldrich, St. Louis, MO, cat. D2650) at 800-fold the tested concentration and stored at -70 degrees C prior to their use. All drugs and investigational agents were tested over a range starting from a high concentration at or near the clinical Cmax and decreasing in half-log increments. If the clinical Cmax for an agent had not been determined, the highest concentration tested was 10 microM.
2.3 Cell Culture. All cells were maintained in an incubator at 37 degrees C and 5% CO2 with 95% humidity. The PDC lines were cultured according to standard operating procedures established by the NCI PDMR. All PDCs were thawed and cultured in Matrigel-coated flasks prepared with a working solution of 1X Ham's F-12 nutrient mix, without supplementation (Invitrogen, cat. 11765054), 100 U/mL penicillin-streptomycin (Invitrogen, cat. 15140122), and 2.5% Matrigel (Corning Inc., cat. 354248) for the first three passages. The 857933-349-R-J2-PDC line was cultured in 6C/Colon 1B media, which includes advanced DMEM/F-12 (Thermo Fisher Scientific, cat. 12634028), 10 mM HEPES (Thermo Fisher Scientific, cat. 15630080), 1X GlutaMAX supplement (Thermo Fisher Scientific, cat. 35050061), 0.1 mg/mL primocin (InvivoGen, cat. ant-pm-2), 10% defined fetal bovine serum, heat inactivated (HyClone Laboratories Inc., cat. SH30070.03HI), 50% L-WRN conditioned media (ATCC, cat. CRL-3276), 1.25 mM N-Acetyl-L-cysteine (Sigma-Aldrich, cat. A9165), 10 mM nicotinamide (Sigma-Aldrich, cat. N0636), 1X B-27 supplement (Thermo Fisher Scientific, cat. 17504044), 1X N-2 supplement (Thermo Fisher Scientific, cat. 17502048), 10 microM Y-27632 dihydrochloride (Tocris Bioscience, cat. 1254), and 50 ng/mL human EGF recombinant protein (Thermo Fisher Scientific, cat. PHG0311). The 485176-168-R4-J1-PDC line was cultured in Panc media, which includes all 6C/Colon 1B media components plus 100 ng/mL human FGF-10 (Thermo Fisher Scientific, cat. 100-26), 500 nM SB-431542 (Selleckchem, cat. S1067), and gastrin (Tocris, cat. 3006).
[…]

[1] = curve of first compound, second compound 0.0316 µM
[2] = curve of first compound, second compound 0.1 µM
[3] = curve of first compound, second compound 0.316 µM
[4] = curve of first compound, second compound 1 µM
[5] = curve of first compound, second compound 3.16 µM
[6] = curve of first compound, second compound 10 µM
[7] = second compound 0.0316 µM, first compound 0.0316 µM
[8] = second compound 0.0316 µM, first compound 0.316 µM
[9] = second compound 0.1 µM, first compound 0.0316 µM
[10] = second compound 0.1 µM, first compound 0.316 µM
[11] = second compound 0.316 µM, first compound 0.0316 µM
[12] = second compound 0.316 µM, first compound 0.316 µM
[13] = second compound 1 µM, first compound 0.0316 µM
[14] = second compound 1 µM, first compound 0.316 µM
[15] = second compound 3.16 µM, first compound 0.0316 µM
[16] = second compound 3.16 µM, first compound 0.316 µM
[17] = second compound 10 µM, first compound 0.0316 µM
[18] = second compound 10 µM, first compound 0.316 µM
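Also: spheroids exposed to compounds for 7 days.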

CCc1c2c(nc3ccc(O)cc13)-c1cc3c(c(=O)n1C2)COC(=O)[C@]3(O)CC + Cc1cnc(CNC(=O)c2c(=O)c3ccc(N4CCCN(C)CC4)nc3n3c2sc2ccccc23)cn1
> 0.316 µM: IC50 [1] | IC50 [2] | IC50 [3] | IC50 [4]
< 0.000999 µM: IC50 [5] | IC50 [6]
inactive: viability, T/C (second compound 0.0316 µM, first compound 0.000999 µM) 121% | viability, T/C (second compound 0.0316 µM, first compound 0.00316 µM) 57.5% | viability, T/C (second compound 0.0316 µM, first compound 0.00999 µM) 81.9% | viability, T/C [7] 67.6% | viability, T/C (second compound 0.0316 µM, first compound 0.0999 µM) 74.8% | viability, T/C [8] 64.7% | viability, T/C (second compound 0.1 µM, first compound 0.000999 µM) 67.5% | viability, T/C (second compound 0.1 µM, first compound 0.00316 µM) 105% | viability, T/C (second compound 0.1 µM, first compound 0.00999 µM) 89.3% | viability, T/C [9] 55.3% | viability, T/C (second compound 0.1 µM, first compound 0.0999 µM) 61.1% | viability, T/C [10] 48.2% | viability, T/C (second compound 0.316 µM, first compound 0.000999 µM) 95.1% | viability, T/C (second compound 0.316 µM, first compound 0.00316 µM) 94.8% | viability, T/C (second compound 0.316 µM, first compound 0.00999 µM) 66.2% | viability, T/C [11] 67.2% | viability, T/C (second compound 0.316 µM, first compound 0.0999 µM) 65% | viability, T/C [12] 69.1% | viability, T/C (second compound 1 µM, first compound 0.000999 µM) 66.6% | viability, T/C (second compound 1 µM, first compound 0.00316 µM) 42.9% | viability, T/C (second compound 1 µM, first compound 0.00999 µM) 72.2% | viability, T/C [13] 55% | viability, T/C (second compound 1 µM, first compound 0.0999 µM) 75% | viability, T/C [14] 80.4% | viability, T/C (second compound 3.16 µM, first compound 0.000999 µM) 35.9% | viability, T/C (second compound 3.16 µM, first compound 0.00316 µM) 48.5% | viability, T/C (second compound 3.16 µM, first compound 0.00999 µM) 47.8% | viability, T/C [15] 47.6% | viability, T/C (second compound 3.16 µM, first compound 0.0999 µM) 52.8% | viability, T/C [16] 55% | viability, T/C (second compound 10 µM, first compound 0.000999 µM) 42.9% | viability, T/C (second compound 10 µM, first compound 0.00316 µM) 38% | viability, T/C (second compound 10 µM, first compound 0.00999 µM) 62.9% | viability, T/C [17] 47% | viability, T/C (second compound 10 µM, first compound 0.0999 µM) 50.3% | viability, T/C [18] 52.1%

C#Cc1c(F)ccc2cc(O)cc(-c3ncc4c(N5CC6CCC(C5)N6)nc(OCC56CCCN5CC(F)C6)nc4c3F)c12 (stereo unspecified)
inactive: viability, T/C (compound 0.0316 µM) 93.8% and 103% and 90.4% | viability, T/C (compound 0.1 µM) 101% and 86% and 69.8% | viability, T/C (compound 0.316 µM) 110% and 97.8% and 105% | viability, T/C (compound 1 µM) 83.9% and 94.1% and 98.5% | viability, T/C (compound 3.16 µM) 88.3% and 93.2% and 89% | viability, T/C (compound 10 µM) 86.6% and 71.6% and 81.2%
> 10 µM: IC50 (curve of compound)

CC(=O)O[C@H]1C(=O)[C@@]2(C)[C@H]([C@H](OC(=O)c3ccccc3)[C@]3(O)C[C@H](OC(=O)[C@H](O)[C@@H](NC(=O)c4ccccc4)c4ccccc4)C(C)=C1C3(C)C)[C@]1(OC(C)=O)CO[C@@H]1C[C@@H]2O + Cc1[nH]c2ccc(F)cc2c1-c1nc2c3cccnc3c3ncccc3c2[nH]1
inactive: viability, T/C [7] 80.1% | viability, T/C (second compound 0.0316 µM, first compound 0.1 µM) 136% | viability, T/C [8] 103% | viability, T/C (second compound 0.0316 µM, first compound 1 µM) 82.4% | viability, T/C (second compound 0.0316 µM, first compound 3.16 µM) 71.2% | viability, T/C (second compound 0.0316 µM, first compound 10 µM) 79.7% | viability, T/C [9] 87.8% | viability, T/C (second compound 0.1 µM, first compound 0.1 µM) 97.5% | viability, T/C [10] 109% | viability, T/C (second compound 0.1 µM, first compound 1 µM) 98.9% | viability, T/C (second compound 0.1 µM, first compound 3.16 µM) 97% | viability, T/C (second compound 0.1 µM, first compound 10 µM) 116% | viability, T/C [11] 91.1% | viability, T/C (second compound 0.316 µM, first compound 0.1 µM) 78% | viability, T/C [12] 70.8% | viability, T/C (second compound 0.316 µM, first compound 1 µM) 72.3% | viability, T/C (second compound 0.316 µM, first compound 3.16 µM) 108% | viability, T/C (second compound 0.316 µM, first compound 10 µM) 126% | viability, T/C [13] 116% | viability, T/C (second compound 1 µM, first compound 0.1 µM) 62.5% | viability, T/C [14] 58.5% | viability, T/C (second compound 1 µM, first compound 1 µM) 89.3% | viability, T/C (second compound 1 µM, first compound 3.16 µM) 69.4% | viability, T/C (second compound 1 µM, first compound 10 µM) 109% | viability, T/C [15] 67.5% | viability, T/C (second compound 3.16 µM, first compound 0.1 µM) 77.5% | viability, T/C [16] 51.1% | viability, T/C (second compound 3.16 µM, first compound 1 µM) 106% | viability, T/C (second compound 3.16 µM, first compound 3.16 µM) 77.8% | viability, T/C (second compound 3.16 µM, first compound 10 µM) 55.5% | viability, T/C [17] 54.5% | viability, T/C (second compound 10 µM, first compound 0.1 µM) 93.7% | viability, T/C [18] 68.1% | viability, T/C (second compound 10 µM, first compound 1 µM) 74.4% | viability, T/C (second compound 10 µM, first compound 3.16 µM) 75.5% | viability, T/C (second compound 10 µM, first compound 10 µM) 104%
> 10 µM: IC50 [1] | IC50 [2] | IC50 [3] | IC50 [4] | IC50 [5] | IC50 [6]
